Test results: ChEMBL document CHEMBL1201862, “PubChem BioAssay data set” (2004)
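Five concentrations, 48 hours, 96-well plates. GI50: concentration for 50% inhibition of growth.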 Active and inactive are the calls of the source. No stated cut-off is given here; in the data, active = GI50 up to about 1.1 µM and inactive = higher.

How the values were obtained:
Experiment in all cases: inhibition of tumour cell growth, NCI panel, 48 h
NCI-H23 = test system: NCI-H23
SW-620 = test system: SW-620
HOP-62 = test system: HOP-62
OVCAR-5 = test system: OVCAR-5
NCI-H460 = test system: NCI-H460
SF-268 = test system: SF-268
Hs-578T = test system: Hs-578T
OVCAR-4 = test system: OVCAR-4
SNB-19 = test system: SNB-19
SK-MEL-5 = test system: SK-MEL-5
HCT-15 = test system: HCT-15
MCF7 = test system: MCF7
DU-145 = test system: DU-145
MOLT-4 = test system: MOLT-4
NCI-H522 = test system: NCI-H522
CCRF-CEM = test system: CCRF-CEM
SK-OV-3 = test system: SK-OV-3
OVCAR-3 = test system: OVCAR-3
HOP-92 = test system: HOP-92
HL-60 = test system: HL-60

Compound	GI50 (NCI-H23)	GI50 (SW-620)	GI50 (HOP-62)	GI50 (OVCAR-5)	GI50 (NCI-H460)	GI50 (SF-268)	GI50 (Hs-578T)	GI50 (OVCAR-4)	GI50 (SNB-19)	GI50 (SK-MEL-5)	GI50 (HCT-15)	GI50 (MCF7)	GI50 (DU-145)	GI50 (MOLT-4)	GI50 (NCI-H522)	GI50 (CCRF-CEM)	GI50 (SK-OV-3)	GI50 (OVCAR-3)	GI50 (HOP-92)	GI50 (HL-60)
COC(=O)c1cc2c3c(cc(NCCN)c2[nH]1)N(C(=O)c1cc2cc(OC)c(OC)c(OC)c2[nH]1)CC3CCl (stereo not given)	0.0659 µM (active)	0.0369 µM (active)	0.17 µM (active)	0.0393 µM (active)	0.0502 µM (active)	0.0213 µM (active)	0.049 µM (active)	0.0925 µM (active)	0.0183 µM (active)	0.0313 µM (active)	0.573 µM	0.014 µM (active)	0.0221 µM (active)	0.0251 µM (active)	< 0.01 µM (active)	0.0174 µM (active)	0.273 µM (active)	0.0728 µM (active)	0.0703 µM (active)	
CCOC(=O)c1ccc(Nc2nc3cc(C(F)(F)F)ccc3nc2-c2ccccc2)cc1	40.3 µM (inactive)	63.2 µM (inactive)	20.9 µM (inactive)	30.1 µM (inactive)	45.7 µM (inactive)	> 100 µM (inactive)	36.1 µM (inactive)		29.2 µM (inactive)	65 µM (inactive)	> 100 µM	19.8 µM (inactive)	> 100 µM (inactive)	> 10 µM (inactive)	37.6 µM (inactive)	43.3 µM (inactive)		53.6 µM (inactive)		50.2 µM (inactive)
COc1ccc2c(c1)-c1c(c3cc(OC)ccc3n1CCN1CCOCC1)CC2	52.1 µM (inactive)	33.7 µM (inactive)	42.6 µM (inactive)	25.4 µM (inactive)	22.8 µM (inactive)	55 µM (inactive)	16.6 µM (inactive)	54 µM (inactive)		25.4 µM (inactive)	14.5 µM	29 µM (inactive)	37.8 µM (inactive)	11.9 µM (inactive)	23.3 µM (inactive)	11.5 µM (inactive)	> 100 µM (inactive)	46.1 µM (inactive)	24.4 µM (inactive)	
C=C(C)C(=O)O[C@@H]1C[C@@]2(C)O[C@@H]2C[C@H](O)/C(C)=C/[C@H]2OC(=O)C(=C)[C@@H]21	> 100 µM (inactive)	18.7 µM (inactive)	> 100 µM (inactive)	> 100 µM (inactive)	> 100 µM (inactive)	> 100 µM (inactive)	> 100 µM (inactive)	19.9 µM (inactive)	> 100 µM (inactive)	> 100 µM (inactive)	30.9 µM	35.8 µM (inactive)	> 100 µM (inactive)	28.8 µM (inactive)	12.6 µM (inactive)	17.3 µM (inactive)	> 100 µM (inactive)	47.9 µM (inactive)	52.8 µM (inactive)	
COc1cc(CNc2c3ccccc3nc3ccccc23)cc(OC)c1OC	3.46 µM (inactive)	1.16 µM (inactive)	2.93 µM (inactive)	3.92 µM (inactive)	2.57 µM (inactive)	4.07 µM (inactive)	3.64 µM (inactive)	2.1 µM (inactive)	4.63 µM (inactive)	2.72 µM (inactive)	2.97 µM	5.48 µM (inactive)	4.52 µM (inactive)	1.37 µM (inactive)	2.55 µM (inactive)	1.57 µM (inactive)	5.47 µM (inactive)	5.21 µM (inactive)	3.58 µM (inactive)	
COC1=CC(=O)N(C(=O)C2CSC(C(CO)NC(=O)c3csc(/C=N/O)n3)=N2)C1 (stereo not given)	> 100 µM (inactive)	> 100 µM (inactive)	> 100 µM (inactive)	> 100 µM (inactive)	> 100 µM (inactive)	> 100 µM (inactive)	15.9 µM (inactive)		> 100 µM (inactive)	> 100 µM (inactive)	> 100 µM	> 100 µM (inactive)	> 100 µM (inactive)	> 100 µM (inactive)		> 100 µM (inactive)	> 100 µM (inactive)	> 100 µM (inactive)		> 100 µM (inactive)
CCOC(=O)c1nc2cc(C(F)(F)F)ccc2nc1Nc1ccc(C(=O)OC)s1	30 µM (inactive)	49.1 µM (inactive)	33.6 µM (inactive)	> 100 µM (inactive)	33 µM (inactive)	44.9 µM (inactive)	29.8 µM (inactive)	31 µM (inactive)	33.1 µM (inactive)	40.5 µM (inactive)	34.2 µM		54.6 µM (inactive)	27.1 µM (inactive)	19.7 µM (inactive)	30.6 µM (inactive)	47.3 µM (inactive)	19.3 µM (inactive)	17.9 µM (inactive)	38 µM (inactive)
ClC(Cl)(Cl)C1CCOC1n1nc2ccccc2n1 (stereo not given)	> 100 µM (inactive)		> 100 µM (inactive)	> 100 µM (inactive)	> 100 µM (inactive)	> 100 µM (inactive)	> 100 µM (inactive)	> 100 µM (inactive)		> 100 µM (inactive)	> 100 µM	> 100 µM (inactive)	> 100 µM (inactive)	> 100 µM (inactive)	> 100 µM (inactive)	> 100 µM (inactive)	> 100 µM (inactive)	> 100 µM (inactive)		49.9 µM (inactive)
